From patent publication US11242337B2, “Compounds useful for treating gastrointestinal tract disorders” (Ardelyx, Inc., priority 2017, dated 2022) come the findings set out here.

Structures can show the parent of a compound that is named as a salt.

For assay [1], the target named is T1, NHE3 (Homo sapiens, UniProt P48764).
T1 construct: expressed in transfected cells
T1 sequence (P48764 26-834): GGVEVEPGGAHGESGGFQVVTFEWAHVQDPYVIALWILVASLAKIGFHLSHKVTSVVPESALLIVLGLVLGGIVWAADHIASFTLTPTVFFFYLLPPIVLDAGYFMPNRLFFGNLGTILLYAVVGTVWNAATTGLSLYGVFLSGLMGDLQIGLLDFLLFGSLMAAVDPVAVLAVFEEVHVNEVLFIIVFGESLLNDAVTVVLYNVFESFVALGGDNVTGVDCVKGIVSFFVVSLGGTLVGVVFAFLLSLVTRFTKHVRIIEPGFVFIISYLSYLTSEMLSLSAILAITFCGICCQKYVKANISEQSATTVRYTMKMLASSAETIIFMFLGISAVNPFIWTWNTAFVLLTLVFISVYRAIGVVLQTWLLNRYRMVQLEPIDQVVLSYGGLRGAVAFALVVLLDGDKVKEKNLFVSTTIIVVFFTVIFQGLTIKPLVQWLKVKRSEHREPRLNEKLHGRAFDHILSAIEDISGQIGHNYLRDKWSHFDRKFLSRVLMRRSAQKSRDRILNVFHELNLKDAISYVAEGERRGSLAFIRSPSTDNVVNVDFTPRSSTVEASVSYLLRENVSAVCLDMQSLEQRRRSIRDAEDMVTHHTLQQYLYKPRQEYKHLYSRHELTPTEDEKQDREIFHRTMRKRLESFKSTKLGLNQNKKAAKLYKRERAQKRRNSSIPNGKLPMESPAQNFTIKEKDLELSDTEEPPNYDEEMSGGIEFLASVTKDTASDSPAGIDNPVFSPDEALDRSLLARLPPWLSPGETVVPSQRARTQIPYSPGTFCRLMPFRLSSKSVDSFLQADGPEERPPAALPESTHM
T1 sequence (Q99653 2-195 partner limits assumed): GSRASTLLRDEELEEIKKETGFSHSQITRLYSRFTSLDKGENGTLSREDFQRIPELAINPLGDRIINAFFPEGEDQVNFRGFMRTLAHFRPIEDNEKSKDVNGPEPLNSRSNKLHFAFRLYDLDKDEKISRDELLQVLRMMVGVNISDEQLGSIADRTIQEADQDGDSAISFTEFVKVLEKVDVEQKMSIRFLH
Nature of the assay: Cell-based assay of NHE-3 activity (pre-incubation inhibition), human. To be noted: human Preincubation; for pIC50 / IC50: 0-30 μM test compound. As for the experimental part: Rat and human NHE-3-mediated Na^+-dependent H^+ antiport was measured using a modification of the pH sensitive dye method originally reported by Paradiso (Proc. Natl. Acad. Sci. USA. (1984) 81(23): 7436-7440). PS120 fibroblasts stably expressing human NHE3 and NHERF2 were obtained from Mark Donowitz (Baltimore, Md.). Opossum kidney (OK) cells were obtained from the ATCC and propagated per their instructions. The rat NHE-3 gene (GenBank M85300) was introduced into OK cells via electroporation, and cells were seeded into 96 well plates and grown overnight. Medium was aspirated from the wells then incubated for 30 min at 37° C. with NH4Cl-HEPES buffer (20 mM NH4Cl, 80 mM NaCl, 50 mM HEPES, 5 mM KCl, 2 mM CaCl2, 1 mM MgCl2, pH 7.4) containing 5 μM BCECF-AM. Cells were washed once with Ammonium free, Na^+-free HEPES (100 mM choline, 50 mM HEPES, 10 mM glucose, 5 mM KCl, 2 mM CaCl2, 1 mM MgCl2, pH 7.4) and incubated in the same buffer for 10 minutes at room temperature to lower intracellular pH with 0-30 μM test compound. […] Changes in intracellular pH were monitored using a FLIPR Tetra® (Molecular Devices, Sunnyvale, Calif.) by excitation at λex 439 to 505 nm, and measuring BCECF fluorescence at λem 538 nm. The initial rate of the fluorescence ratio change was used as a measure of NHE-mediated Na^+/H^+ activity, and reported as the change in fluorescence ratio per minute.

Assay [2] addresses T1, NHE3. Kind of assay: Cell-based assay of NHE-3 activity (persistent inhibition), human. To be noted: human Persistence, 60 min incubation then washout. As for the experimental part: The ability of compounds to inhibit human and rat NHE-3-mediated Na^+ dependent H^+ antiport after application and washout was measured using a modification of the pH sensitive dye method described above. PS120 fibroblasts stably expressing human NHE3 and NHERF2 were obtained from Mark Donowitz (Baltimore, Md.). Opossum kidney (OK) cells were obtained from the ATCC and propagated per their instructions. The rat NHE-3 gene was introduced into OK cells via electroporation, and cells were seeded into 96 well plates and grown overnight. Medium was aspirated from the wells, cells were washed once with NaCl-HEPES buffer (100 mM NaCl, 50 mM HEPES, 10 mM glucose, 5 mM KCl, 2 mM CaCl2, 1 mM MgCl2, pH 7.4), then overlayed with NaCl-HEPES buffer containing 0-30 μM test compound. After a 60 min incubation at room temperature, the test drug containing buffer was aspirated from the cells. Following aspiration, cells were washed once with NaCl-HEPES buffer without drug, then incubated for 30 min at 37° C. with NH4Cl-HEPES buffer (20 mM NH4Cl, 80 mM NaCl, 50 mM HEPES, 5 mM KCl, 2 mM CaCl2, 1 mM MgCl2, pH 7.4) containing 5 μM BCECF-AM. Cells were washed once with Ammonium free, Na^+-free HEPES (100 mM choline, 50 mM HEPES, 10 mM glucose, 5 mM KCl, 2 mM CaCl2, 1 mM MgCl2, pH 7.4) and incubated in the same buffer for 10 minutes at room temperature to lower intracellular pH. NHE-3-mediated recovery of neutral intracellular pH was initiated (10 min after compound washout) by addition of Na-HEPES buffer. […] Changes in intracellular pH were monitored using a FLIPR Tetra® (Molecular Devices, Sunnyvale, Calif.) by excitation at λex 439 to 505 nm, and measuring BCECF fluorescence at λem 538 nm. The initial rate of the fluorescence ratio change was used as a measure of NHE-mediated Na^+/H^+ activity, and reported as the change in fluorescence ratio per minute.

Take `CC(C)[C@H](COCCOCCNC(=O)NCCCCNC(=O)NCCOCCOC[C@H](NS(=O)(=O)c1ccc(O[C@H]2c3cc(Cl)cc(Cl)c3C[C@@H]2N2CCC[C@@H](N)C2)cc1)C(C)C)NS(=O)(=O)c1ccc(O[C@H]2c3cc(Cl)cc(Cl)c3C[C@@H]2N2CCC[C@@H](N)C2)cc1` [Example 99, 3-(2-[2-[(2R)-2-[(4-[[(1S,2S)-2-[(3R)-3-Aminopiperidin-1-yl]-4,6-dichloro-2,3-dihydro-1H-inden-1-yl]oxy]benzene)sulfonamido]-3-methylbutoxy]ethoxy]ethyl)-1-(4-[[(2-[2-[(2R)-2-[(4-[[(1S,2S)-2-[(3R)-3-aminopiperidin-1-yl]-4,6-dichloro-2,3-dihydro-1H-inden-1-yl]oxy]benzene)sulfonamido]-3-methylbutoxy]ethoxy]ethyl)carbamoyl]amino]butyl)urea]: at NHE3 [1], the “% inhibition” value is “C (>70%)” and the pIC50 entry is “C (NHE3 pIC50 > 7)”. Moreover, at NHE3 [2], the “% inhibition” value was “C (>70%)” and the IC50 is 100 to 1000 nM.
On to `C[C@@H]1CN([C@H]2Cc3c(C#N)cc(Cl)cc3[C@@H]2Oc2ccc(S(=O)(=O)N[C@@H]3CCN(CCOCCNC(=O)NCCCCNC(=O)NCCOCCN4CC[C@@H](NS(=O)(=O)c5ccc(O[C@H]6c7cc(Cl)cc(C#N)c7C[C@@H]6N6C[C@@H](C)N[C@@H](C)C6)cc5)C4)C3)cc2)C[C@H](C)N1` [Example 137, 4-([(1S,2S)-6-Chloro-4-cyano-2-[(3S,5R)-3,5-dimethylpiperazin-7-yl]-2,3-dihydro-1H-inden-1-yl]oxy)-N—[(R)-1-(20-[(R)-3-([4-([(1S,2S)-6-chloro-4-cyano-2-[(3S,5R)-3,5-dimethylpiperazin-1-yl]-2,3-dihydro-1H-inden-1-yl]oxy)phenyl]sulfonamido)pyrrolidin-1-yl]-7,14-dioxo-3,18-dioxa-6,8,13,15-tetraazaicosyl)pyrrolidin-3-yl]benzenesulfonamide; bis(trifluoroacetic acid)], for which the “% inhibition” value on NHE3 [1] and on NHE3 [2] was “C (>70%)” each time. Besides, the pIC50 result at NHE3 [1] and at NHE3 [2] was “C (NHE3 pIC50 > 7)” each time.
Regarding `Cc1cc(S(=O)(=O)N2CC[C@H](COc3ccnc(CNC(=O)NCCCCNC(=O)NCc4cc(OC[C@H]5CCN(S(=O)(=O)c6ccc(O[C@H]7c8cc(Cl)cc(Cl)c8C[C@@H]7N(C)C)c(C)c6)C5)ccn4)c3)C2)ccc1O[C@H]1c2cc(Cl)cc(Cl)c2C[C@@H]1N(C)C` [Example 48, 3-[(4-[[(3S)-1-[(4-[[(1S,2S)-4,6-Dichloro-2-(dimethylamino)-2,3-dihydro-1H-inden-1-yl]oxy]-3-methylbenzene)sulfonyl]pyrrolidin-3-yl]methoxy]pyridin-2-yl)methyl]-1-[4-([[(4-[[(3S)-1-[(4-[[(1S,2S)-4,6-dichloro-2-(dimethylamino)-2,3-dihydro-1H-inden-1-yl]oxy]-3-methylbenzene)sulfonyl]pyrrolidin-3-yl]methoxy]pyridin-2-yl)methyl]carbamoyl]amino)butyl]urea], at NHE3 [1], the “% inhibition” value is listed as “B (40-70%)” and the IC50 was 100 to 1000 nM. Also, at NHE3 [2], the “% inhibition” value is on record as “C (>70%)” and the concentration for half-maximal inhibition (IC50) is 100 to 1000 nM.
Take `O=C(NCCCCNC(=O)NCCOCCOCCNS(=O)(=O)c1ccc(O[C@H]2c3cc(Cl)cc(Cl)c3C[C@@H]2N2C3CCCC2CC3)cc1)NCCOCCOCCNS(=O)(=O)c1ccc(O[C@H]2c3cc(Cl)cc(Cl)c3C[C@@H]2N2C3CCCC2CC3)cc1` [Example 70, 3-[2-(2-[2-[(4-[[(1S,2S)-2-[8-azabicyclo[3.2.1]octan-8-yl]-4,6-dichloro-2,3-dihydro-1H-inden-1-yl]oxy]benzene)sulfonamido]ethoxy]ethoxy)ethyl]-1-[4-([[2-(2-[2-[(4-[[(1S,2S)-2-[8-azabicyclo[3.2.1]octan-8-yl]-4,6-dichloro-2,3-dihydro-1H-inden-1-yl]oxy]benzene)sulfonamido]ethoxy]ethoxy)ethyl]carbamoyl]amino)butyl]urea]: the “% inhibition” value on NHE3 [1] and on NHE3 [2] was “C (>70%)” throughout.
Regarding `CC1(C)O[C@H]2[C@@H](OC(C)(C)O[C@H]2C(=O)NCc2cn(CCCCNS(=O)(=O)c3ccc(O[C@H]4c5cc(Cl)cc(Cl)c5C[C@@H]4N4CCC[C@@H](N)C4)cc3)nn2)[C@@H](C(=O)NCc2cn(CCCCNS(=O)(=O)c3ccc(O[C@H]4c5cc(Cl)cc(Cl)c5C[C@@H]4N4CCC[C@@H](N)C4)cc3)nn2)O1` [Example 60, (4R,4aS,8S,8aR)—N^4,N^8-Bis([1-(4-[4-((1S,2S)-2-[(3R)-3-aminopiperidin-1-yl]-4,6-dichloro-2,3-dihydro-1H-inden-1-yloxy)phenylsulfonamide]butyl)-1H-1,2,3-traizol-4-yl]methyl)-2,2,6,6-tetramethyl-tetrahydro-[1,3]dioxino[5,4-d][1,3]dioxine-4,8-dicarboxamide], at NHE3 [1], the “% inhibition” value is “C (>70%)” and the pIC50 entry is “C (NHE3 pIC50 > 7)”. For the same compound, on NHE3 [2], the “% inhibition” value is given as “C (>70%)” and the pIC50 result is “C (NHE3 pIC50 > 7)”.
Regarding `C[C@@H](COCCOCCNC(=O)NCCCCNC(=O)NCCOCCOC[C@H](C)NS(=O)(=O)c1ccc(O[C@H]2c3cc(Cl)cc(Cl)c3C[C@@H]2N2CCC[C@@H](N)C2)cc1)NS(=O)(=O)c1ccc(O[C@H]2c3cc(Cl)cc(Cl)c3C[C@@H]2N2CCC[C@@H](N)C2)cc1` [Example 96, 1-(2-[2-[(2S)-2-[(4-[[(1S,2S)-2-[(3R)-3-Aminopiperidin-1-yl]-4,6-dichloro-2,3-dihydro-1H-inden-1-yl]oxy]benzene)sulfonamido]propoxy]ethoxy]ethyl)-3-(4-[[(2-[2-[(2S)-2-[(4-[[(1S,2S)-2-[(3R)-3-aminopiperidin-1-yl]-4,6-dichloro-2,3-dihydro-1H-inden-1-yl]oxy]benzene)sulfonamido]propoxy]ethoxy]ethyl)carbamoyl]amino]butyl)urea; hydrochloride], on NHE3 [1], the “% inhibition” value is recorded as “C (>70%)” and the IC50 is less than 100 nM. On NHE3 [2], the “% inhibition” value was “C (>70%)” and the IC50 was less than 100 nM.

The term IC50 denotes the concentration at which inhibition is half-maximal. Low values mean greater potency, high ones weaker potency.
